Assay results published in PubChem BioAssay AID248 (DTP/NCI, 2004).
Inconclusive results and toxic doses are left out. No stated cut-off is given here; in the data, active means T/C of 150% or more; inactive means T/C below 125%.

Test system: L1210 leukemia ip in BDF1 mice, survival T/C
Assay: NCI In Vivo Anticancer Drug Screen. Data for tumor model L1210 Leukemia (intraperitoneal) in B6D2F1 (BDF1) mice
Conditions: endpoint: mean survival time, higher = longer survival
How it was run: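 Each compound was tested against a transplantable tumor grown in mice. The endpoint was survival, with treated animals benchmarked against vehicle controls as a simple ratio.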

[1] = dose: 100.0 mg/kg/injection, schedule: Q04DX002 (ip), vehicle: Klucel (hydroxypropylcellulose) (HPC)
[2] = dose: 200.0 mg/kg/injection, schedule: Q04DX002 (ip), vehicle: Klucel (hydroxypropylcellulose) (HPC)
[3] = dose: 400.0 mg/kg/injection, schedule: Q04DX002 (ip), vehicle: Klucel (hydroxypropylcellulose) (HPC)
[4] = dose: 25.0 mg/kg/injection, schedule: Q04DX003 (ip), vehicle: saline
[5] = dose: 75.0 mg/kg/injection, schedule: Q01DX001 (ip), vehicle: saline

Measured: T/C

CC(C)C(=O)NCc1ccccc1
inactive: [1] 104 % of control | [2] 101 % of control | [3] 90 % of control

O=C1c2ccccc2C(=O)N1OCCCBr
inactive: dose: 50.0 mg/kg/injection, schedule: Q01DX001 (ip), vehicle: saline 96 % of control | dose: 100.0 mg/kg/injection, schedule: Q01DX001 (ip), vehicle: saline 102 % of control | dose: 200.0 mg/kg/injection, schedule: Q01DX001 (ip), vehicle: saline 102 % of control | dose: 400.0 mg/kg/injection, schedule: Q01DX001 (ip), vehicle: saline 102 % of control

O=C(N/N=C\C=C\c1ccccc1)c1ccc(Cl)cc1
inactive: dose: 50.0 mg/kg/injection, schedule: Q01DX009 (ip), vehicle: saline with Tween-80 93 % of control | dose: 100.0 mg/kg/injection, schedule: Q01DX009 (ip), vehicle: saline with Tween-80 89 % of control | dose: 200.0 mg/kg/injection, schedule: Q01DX009 (ip), vehicle: saline with Tween-80 86 % of control

O=P(OCc1ccccc1)(N(CCCl)CCCl)N1CCCC1 (stereo not drawn)
inactive: dose: 16.0 mg/kg/injection, schedule: Q01DX Z (ip), vehicle: saline 92 % of control | dose: 32.0 mg/kg/injection, schedule: Q01DX Z (ip), vehicle: saline 90 % of control | dose: 64.0 mg/kg/injection, schedule: Q01DX Z (ip), vehicle: saline 101 % of control | dose: 128.0 mg/kg/injection, schedule: Q01DX Z (ip), vehicle: saline 106 % of control

CC(N)c1ccccc1 (stereo not drawn)
inactive: dose: 100.0 mg/kg/injection, schedule: Q01DX001 (ip), vehicle: saline with Tween-80 95 % of control | dose: 200.0 mg/kg/injection, schedule: Q01DX001 (ip), vehicle: saline with Tween-80 90 % of control

CN(C)c1ccc(C2=CC3CCCC(C2)N3C)cc1 (stereo not drawn)
inactive: dose: 12.5 mg/kg/injection, schedule: Q04DX003 (ip), vehicle: saline 100 % of control | [4] 97 % of control

CN(C)Cc1cc(C(C)(C)C)ccc1O
inactive: dose: 100.0 mg/kg/injection, schedule: Q04DX003 (ip), vehicle: saline 95 % of control | dose: 200.0 mg/kg/injection, schedule: Q04DX003 (ip), vehicle: saline 91 % of control

O=NN(C(=O)NC1CCCCC1)C1CCCCC1
inactive: dose: 100.0 mg/kg/injection, schedule: Q01DX001 (ip), vehicle: carboxymethylcellulose (CMC) 106 % of control | dose: 200.0 mg/kg/injection, schedule: Q01DX001 (ip), vehicle: carboxymethylcellulose (CMC) 106 % of control | dose: 300.0 mg/kg/injection, schedule: Q01DX001 (ip), vehicle: carboxymethylcellulose (CMC) 106 % of control | dose: 400.0 mg/kg/injection, schedule: Q01DX001 (ip), vehicle: carboxymethylcellulose (CMC) 109 % of control | dose: 500.0 mg/kg/injection, schedule: Q01DX001 (ip), vehicle: carboxymethylcellulose (CMC) 112 % of control

C/C(=N/N(C)C)c1ccc(Br)cc1
inactive: dose: 6.25 mg/kg/injection, schedule: Q01DX009 (ip), vehicle: saline 100 % of control | dose: 12.5 mg/kg/injection, schedule: Q01DX009 (ip), vehicle: saline 94 % of control | dose: 25.0 mg/kg/injection, schedule: Q01DX009 (ip), vehicle: saline 92 % of control | dose: 50.0 mg/kg/injection, schedule: Q01DX009 (ip), vehicle: Klucel (hydroxypropylcellulose) (HPC) 108 % of control

O=C(Nc1ccccc1Cl)N1CCOCC1
inactive: [1] 106 % of control | [2] 103 % of control | [3] 87 % of control

CN1C2CCC1CC(=O)C2
inactive: [5] 103 % of control | dose: 150.0 mg/kg/injection, schedule: Q01DX001 (ip), vehicle: saline 102 % of control

C#CC(N)=O
inactive: dose: 3.0 mg/kg/injection, schedule: Q01DX009 (ip), vehicle: saline 100 % of control | dose: 6.0 mg/kg/injection, schedule: Q01DX009 (ip), vehicle: saline 96 % of control | dose: 12.0 mg/kg/injection, schedule: Q01DX009 (ip), vehicle: saline 94 % of control | [4] 107 % of control | dose: 50.0 mg/kg/injection, schedule: Q04DX003 (ip), vehicle: saline 106 % of control | [5] 107 % of control

C=C(Br)CNS(=O)(=O)c1ccc(OC)cc1
inactive: dose: 100.0 mg/kg/injection, schedule: Q04DX003 (ip), vehicle: saline with Tween-80 92 % of control | dose: 200.0 mg/kg/injection, schedule: Q04DX003 (ip), vehicle: saline with Tween-80 101 % of control | dose: 400.0 mg/kg/injection, schedule: Q04DX003 (ip), vehicle: saline with Tween-80 94 % of control
